Results on five compounds are retold here after US6562841B1, “Methods and compositions for repelling arthropods” (The United States of America as represented by the …, priority 2000, dated 2003).

The subject of one test is Aedes aegypti (Linnaeus). The test can be described thus: Repellent bioassay on human skin, K & D modules, biting frequency of Aedes aegypti. It is filed as in vivo. To be noted: for repellent activity, comparison in words: pair-wise comparison alpha=0.05.
The subject of another test is Anopheles stephensi. The test can be described thus: Repellent bioassay on human skin, K & D modules, Anopheles stephensi. It is filed as in vivo.
The subject of another test is Phlebotomus papatasi. Kind of test: Repellent bioassay on human skin, K & D modules, Phlebotomus papatasi. It is filed as in vivo.
Another test has as its system Aedes albopictus. Kind of test: Repellent bioassay on human skin, K & D modules, Aedes albopictus. It is filed as in vivo.
Test [1] has as its system many species of blood-sucking arthropods. To be noted: field and laboratory studies, literature, cited from earlier work.

Read-outs that look alike come from different tables or passages of the source.

Consider `CC1CCCCN1C(=O)C1CC=CCC1` [(1R,2′R), 1-(3-cyclohexen-1-ylcarbonyl)-2-methylpiperidine], for which the “repellent activity, comparison in words” value in the test on Aedes aegypti (Linnaeus) (Ae. aegypti, 4.95 μg/cm^2 skin, listed as (1R,2′R)-220) is on record as “significantly less effective as a repellent”.

Regarding `C[C@H]1CCCCN1C(=O)[C@@H]1CC=CCC1` (single isomer, unassigned) [(1S,2′S)], the “repellent effectiveness, comparison in words” value in the test on Anopheles stephensi and with Phlebotomus papatasi was “most effective in repelling bites” in each case. The “times more effective in suppressing bites than the racemate” value was 4 times with Aedes albopictus and 2.5 times with Aedes aegypti (Linnaeus) (Ae. aegypti, equal dose). Further, the “times more repellent than the other stereoisomers” value in the test with Aedes aegypti (Linnaeus) (Ae. aegypti, 4.95 μg/cm^2 skin) is 2.8-3.1 times.

Take `CC1CCCCN1C(=O)C1CC=CCC1` [(1S,2′R), 1-(3-cyclohexen-1-ylcarbonyl)-2-methylpiperidine]: the “repellent activity, comparison in words” value in the test with Aedes aegypti (Linnaeus) (Ae. aegypti, 4.95 μg/cm^2 skin) is reported as “not significantly different from one another”.

For the compound `CC1CCCCN1C(=O)C1CC=CCC1` [(1R,2′S), 1-(3-cyclohexen-1-ylcarbonyl)-2-methylpiperidine], the “repellent effectiveness, comparison in words” value with Aedes albopictus is “more effective than the (1S,2′R) and (1R,2′R) stereoisomers”. The “times more repellent than the other stereoisomers” value in the test on Aedes aegypti (Linnaeus) (Ae. aegypti, 4.95 μg/cm^2 skin) is 1.6-1.8 times.

Regarding `CC1CCCCN1C(=O)C1CC=CCC1` (racemic) [compound 220, 1-(3-cyclohexen-1-ylcarbonyl)-2-methylpiperidine, reference compound], the “effectiveness in reducing bites compared with deet” value is recorded as “more or as effective as the commonly used arthropod repellent deet” in test [1] and “more effective than deet” in test [1] (listed as 220 racemate). Further, the proportion biting value in the test with Aedes aegypti (Linnaeus) (Ae. aegypti females on treated human skin, 4.95 μg/cm^2 skin, 2 min exposure) worked out at 0.45. Besides, in the test on Aedes aegypti (Linnaeus) (Ae. aegypti, 4.95 μg/cm^2 skin), the “repellent activity, comparison in words” value was “not significantly different from one another”.
